Experimental data taken from patent US12258337B2, “Bicyclic CX3CR1 receptor agonists” (Board of Regents, The University of Texas System, priority 2019, dated 2025).
pEC50: −log10 of the molar value.

Experiments:
Assay type in all cases: cell-based
hCX3CR1 [1] = target: T1, hCX3CR1 (Homo sapiens, UniProt P49238); experiment: Ga16 assay, CX3CR1 agonism, Ca2+ sensitive photo-protein readout (FLIPRTETRA); set-up: expressed in transfected cells; stably expresses a Ca2+ sensitive photo-protein; conditions: human CX3CR1 cell line
T1 sequence (P49238 1-355): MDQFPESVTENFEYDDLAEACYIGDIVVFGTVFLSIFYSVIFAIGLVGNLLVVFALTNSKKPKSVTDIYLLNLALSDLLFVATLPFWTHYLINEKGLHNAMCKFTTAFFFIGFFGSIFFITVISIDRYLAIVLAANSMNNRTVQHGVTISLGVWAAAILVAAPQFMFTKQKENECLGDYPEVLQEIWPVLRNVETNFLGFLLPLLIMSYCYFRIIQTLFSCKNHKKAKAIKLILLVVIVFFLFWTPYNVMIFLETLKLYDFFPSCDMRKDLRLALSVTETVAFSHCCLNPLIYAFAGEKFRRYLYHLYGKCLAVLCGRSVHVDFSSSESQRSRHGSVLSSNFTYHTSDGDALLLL
Protocol: (§1) Compounds (as well as stereoisomer(s) thereof and/or salt(s) thereof) were tested for CX3CR1 agonism in a cell based assay with fluorescent readout in Agonist Mode in dose response in quadruplicate with intra-plate modality).
(§2) Buffers and reagents. PBS (D-PBS without calcium and magnesium; EuroClone); Trypsin (Trypsin 0.05%, EDTA 0.02% in PBS; EuroClone); DMSO (Sigma); Standard tyrode buffer: in-house solution (130 mM NaCl, 5 mM KCl, 2 mM CaCl2), 1 mM MgCl2, 5 mM NaHCO3, 20 mM HEPES in water at pH 7.4; sterile filtered); Coelenterazine, native (Biosynth); stock 10 mM; Agonist: Recombinant Human Fractalkine (CX3CL1) (PeproTech); stock: 10 μM in standard tyrode buffer+BSA 0.1%; stored at −20° C.
(§3) Cell line. Human (hCX3CR1), mouse (mCX3CR1), and rat (rCX3CR1) were used for the assay.
(§4) Assay protocol. Experiments ere performed in 384 MTP format. Cells were seeded at 7,500 cells/well in 25 μl/well complete growth medium without selection antibiotics in 384-well plates. Twenty-four hours later, cells ere assayed for the response to various compounds using the Ca^2+ sensitive photo-protein stably expressed in the cells as readout.
(§5) The experiment was performed in a 384-well format according to the following procedure: • 24h after seeding, pre-incubate the cells at room temperature for 1 hour. • Then remove the culture medium. • Load cells with 20 μL/well of standard tyrode buffer+10 μM ceolenterazine. • Incubate cell plates for 3 hours at RT. • Inject 10 μL/w of 3× concentrated test compounds and controls in assay buffer at the FLIPRTETRA and monitor the kinetic response over a period of 90 seconds.
(§6) Data from FLIPRTETRA measurements were analyzed with the Genedata Screener© software. The following examples are meant to illustrate, but in no way to limit, the claimed invention.

rCX3CR1 = target: T2, rCX3CR1 (Rattus norvegicus, UniProt P35411); experiment: as above; conditions: rat CX3CR1 cell line
T2 construct: expressed in transfected cells; stably expresses a Ca2+ sensitive photo-protein
T2 sequence (P35411 1-354): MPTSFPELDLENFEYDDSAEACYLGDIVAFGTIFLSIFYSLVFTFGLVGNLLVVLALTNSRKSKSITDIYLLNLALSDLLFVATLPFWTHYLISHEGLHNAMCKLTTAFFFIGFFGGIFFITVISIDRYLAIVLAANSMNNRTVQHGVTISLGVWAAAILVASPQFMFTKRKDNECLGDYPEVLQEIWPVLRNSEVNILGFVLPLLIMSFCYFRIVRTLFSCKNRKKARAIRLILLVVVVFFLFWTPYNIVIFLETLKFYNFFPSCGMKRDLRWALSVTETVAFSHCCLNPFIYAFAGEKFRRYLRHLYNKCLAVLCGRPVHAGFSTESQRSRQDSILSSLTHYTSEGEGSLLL
Protocol: as §1, §2, §3, §4, §5, §6

mCX3CR1 = target: T3, mCX3CR1 (Mus musculus, UniProt Q9Z0D9); experiment: as above; conditions: mouse CX3CR1 cell line
T3 construct: expressed in transfected cells; stably expresses a Ca2+ sensitive photo-protein
T3 sequence (Q9Z0D9 1-354): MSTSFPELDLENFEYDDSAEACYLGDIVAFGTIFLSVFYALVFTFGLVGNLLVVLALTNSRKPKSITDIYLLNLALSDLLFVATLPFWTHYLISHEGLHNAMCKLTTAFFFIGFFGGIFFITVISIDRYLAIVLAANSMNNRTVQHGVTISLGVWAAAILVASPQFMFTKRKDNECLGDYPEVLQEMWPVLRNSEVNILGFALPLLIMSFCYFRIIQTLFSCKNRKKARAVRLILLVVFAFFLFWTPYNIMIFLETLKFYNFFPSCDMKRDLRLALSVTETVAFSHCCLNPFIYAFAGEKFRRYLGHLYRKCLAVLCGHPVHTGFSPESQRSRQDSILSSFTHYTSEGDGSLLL
Protocol: as §1, §2, §3, §4, §5, §6

hCX3CR1 [2] = target: T1, hCX3CR1; experiment: Suchi5 assay (HEK/NatClytin/CNG/Suchi5 transiently transfected hCX3CR1, Fluo-8 Ca2+ readout); set-up: expressed in transfected cells; stably expresses a Ca2+ sensitive photo-protein; conditions: Suchi5 assay, HEK/NatClytin/CNG/Suchi5 transfected with hCX3CR1; read-out: hCX3CR1 agonism EC50
Protocol: Buffers and reagents. PBS (D-PBS without calcium and magnesium; EuroClone); Trypsin (Trypsin 0.05%, EDTA 0.02% in PBS; EuroClone); Opti-MEM medium (Thermo Fisher); DMSO (Sigma); Standard tyrode buffer: in-house solution (130 mM NaCl, 5 mM KCl, 2 mM CaCl2), 1 mM MgCl2, 5 mM NaHCO3, 20 mM HEPES in water at pH 7.4; sterile filtered); Screen Quest™ Fluo-8 No Wash Calcium Assay Kit (AAt Bioquest®); Lipofectamine® 2000 Reagent (Thermo Fisher); Agonist: Recombinant Human Fractalkine (CX3CL1) (PeproTech); stock: 10 μM in standard Tyrode buffer/BSA 01%; stored at −20° C.
Cell line. The final cell line for CX3CR1-Suchi5 assay is HEK/NatClytin/CNG/Suchi5 transiently transfected hCX3CR1 cDNA. In this cell line native Gαi signaling is switched to Gαq pathway thanks to the overexpression of a Gαiq chimeric G protein (called Suchi5) to direct Gαi activation towards Ca^2+ release for measurement.
Assay protocol. Experiments are performed in 384 MTP format. Transiently transfected cells are seeded at 20,000 cells/well in 25 μl/well Opti-MEM medium without selection antibiotics in 384-well plates. 4-5-hours later 25 μL/well of complete medium with 20% of FBS are added to the cells. Twenty-four hours later, cells are assayed for the response to various compounds using a fluorescent Ca^2+ sensitive dye (FLUO8-No Wash Dye) as readout.
The experiment is performed in a 384-well format according to the following procedure: • 24h after seeding, remove the culture medium. • Load cells with 20 μL/well of 0.5X FLUO-8 No Wash Dye diluted in assay buffer. • Incubate cell plates for 1 hour at RT. • Inject 10 μL/w of 3× concentrated test compounds and controls in assay buffer at the FLIPRTETRA and monitor the kinetic response over a period of 90 seconds.
Data from FLIPRTETRA measurements are analyzed with the Genedata Screener© software.

Compound	pEC50 (hCX3CR1 [1])	pEC50 (rCX3CR1)	pEC50 (mCX3CR1)	pEC50 (hCX3CR1 [2])
CC1CCCC1(CNC(=O)c1cc2c(s1)CCCCCC2)CN(C)C (single isomer, unassigned) [Example 60, N-[[1-[(dimethylamino)methyl]-2-methylcyclopentyl]methyl]-4,5,6,7,8,9-hexahydrocycloocta[b]thiophene-2-carboxamide]	4.77	4.72	4.05	4.99
CC1CCCC1(CNC(=O)c1cc2c(s1)CCCCCC2)CN(C)C (single isomer, unassigned) [Example 61, N-[[1-[(dimethylamino)methyl]-2-methylcyclopentyl]methyl]-4,5,6,7,8,9-hexahydrocycloocta[b]thiophene-2-carboxamide]	4.87	4.82	4.47	5.17
O=C(NCC1(CN2CCC(O)C2)CCCC1)c1cc2c(s1)CCCCCC2 (single isomer, unassigned) [Example 63, N-[[1-[(3-hydroxypyrrolidin-1-yl)methyl]cyclopentyl]methyl]-4,5,6,7,8,9-hexahydrocycloocta[b]thiophene-2-carboxamide]	5.01	5.01	4.87	5.02
O=C(NCC1(CN2CCC(O)C2)CCCC1)c1cc2c(s1)CCCCCC2 (single isomer, unassigned) [Example 64, N-[[1-[(3-hydroxypyrrolidin-1-yl)methyl]cyclopentyl]methyl]-4,5,6,7,8,9-hexahydrocycloocta[b]thiophene-2-carboxamide]	4.99	5.04	4.86	5.06
CN(C)CC1(CNC(=O)c2cc3c(s2)CCCCCC3)CCCOC1 (stereo not shown) [Example 37, N-[[3-[(dimethylamino)methyl]oxan-3-yl]methyl]-4,5,6,7,8,9-hexahydrocycloocta[b]thiophene-2-carboxamide]	4.91	4.94	4.82	–
CN(C)CC1(CNC(=O)c2cc3c(s2)CCCCCC3)CCOC1 (stereo not shown) [Example 38, N-[[3-[(dimethylamino)methyl]oxolan-3-yl]methyl]-4,5,6,7,8,9-hexahydrocycloocta[b]thiophene-2-carboxamide]	5.00	4.88	4.80	–
O=C(NCC1(CN2CCC(O)CC2)CCC1)c1cc2c(s1)CCCCCC2 [Example 41, N-[[1-[(4-hydroxypiperidin-1-yl)methyl]cyclobutyl]methyl]-4,5,6,7,8,9-hexahydrocycloocta[b]thiophene-2-carboxamide]	5.07	5.13	5.03	5.60
COCCOC1CCN(CC(C)(C)CNC(=O)c2cc3c(s2)CCCCCC3)CC1 [Example 42, N-[3-[4-(2-methoxyethoxy)piperidin-1-yl]-2,2-dimethylpropyl]-4,5,6,7,8,9-hexahydrocycloocta[b]thiophene-2-carboxamide]	4.65	4.09	< 4.00	–
CC(C)(CNC(=O)c1cc2c(s1)CCCCCC2)CN1CCCC(O)C1 (stereo not shown) [Example 46, N-[3-(3-hydroxypiperidin-1-yl)-2,2-dimethylpropyl]-4,5,6,7,8,9-hexahydrocycloocta[b]thiophene-2-carboxamide]	4.96	4.70	4.28	4.93

Further lines, results first:

pEC50 (hCX3CR1 [1])	pEC50 (rCX3CR1)	pEC50 (mCX3CR1)	pEC50 (hCX3CR1 [2])	Compound
4.89	4.92	4.74	–	O=C(NCC1(CN2CCC2)CCOCC1)c1cc2c(s1)CCCCCC2 [Example 35, N-[[4-(azetidin-1-ylmethyl)oxan-4-yl]methyl]-4,5,6,7,8,9-hexahydrocycloocta[b]thiophene-2-carboxamide]
5.04	< 4.00	< 4.00	–	O=C(NCC1(CN2CCC2)CCC1)c1cc2c(s1)CCCCCC2 [Example 36, N-[[1-(azetidin-1-ylmethyl)cyclobutyl]methyl]-4,5,6,7,8,9-hexahydrocycloocta[b]thiophene-2-carboxamide]
4.95	4.96	5.02	–	O=C(NCC1(CN2CCCC2)CCOC1)c1cc2c(s1)CCCCCC2 (stereo not shown) [Example 39, N-[[3-(pyrrolidin-1-ylmethyl)oxolan-3-yl]methyl]-4,5,6,7,8,9-hexahydrocycloocta[b]thiophene-2-carboxamide]
4.68	4.13	4.08	–	O=C(NCC1(CN2CCC(O)CC2)CCOCC1)c1cc2c(s1)CCCCCC2 [Example 40, N-[[4-[(4-hydroxypiperidin-1-yl)methyl]oxan-4-yl]methyl]-4,5,6,7,8,9-hexahydrocycloocta[b]thiophene-2-carboxamide]
5.02	5.08	4.97	–	O=C(NCC1(CN2CCCC2)CCCOC1)c1cc2c(s1)CCCCCC2 (stereo not shown) [Example 44, N-[[3-(pyrrolidin-1-ylmethyl)oxan-3-yl]methyl]-4,5,6,7,8,9-hexahydrocycloocta[b]thiophene-2-carboxamide]
4.84	4.73	4.38	4.85	O=C(NCC1(CN2CCC(O)CC2)CCCOC1)c1cc2c(s1)CCCCCC2 (stereo not shown) [Example 45, N-[[3-[(4-hydroxypiperidin-1-yl)methyl]oxan-3-yl]methyl]-4,5,6,7,8,9-hexahydrocycloocta[b]thiophene-2-carboxamide]
